Tests used:
[1] = tested on: Mouse B16 melanoma cells (MM-4 cell line); experiment: Cytotoxic/cytostatic activity of E2+85Rbe and antitumor drug added simultaneously; type: cell-based
Method: The effects of the complex action of various doses of the investigated substances were evaluated using the concept of synergistic, additive and antagonistic effects of the drugs. The mathematics are detailed below. […] The effects were calculated using the Chou-Talalay method according to the following equation (“CI” refers to the “combination index”) (see T.-C. […] Where both the ^85Rb-enriched rubidium salt (referred to as “E2+^85Rbe”) and an AD were administered, they were administered simultaneously.

[2] = tested on: Mouse melanoma cells (MM-4 cell line); experiment: Cytotoxic effect of E2+85Rbe and antitumor drug added 24 hours apart; type: cell-based
Method: The effectiveness of the method of the invention that comprises administering antitumor drugs and ^85Rb-enriched rubidium salt of N-benzoyl-N-(4-toluenesulfonyl)-o-phenylenediamine of formula I was measured in the experiment. […] Both orders were tested: AD administered first (Scheme 2, below), and AD administered second (Scheme 1, below).
Materials and Methods: Mouse melanoma cells (MM-4 cell line) were seeded into 96-well plates (TPP, Italy), in DMEM (Biowest, France) supplemented with 10% newborn calf serum (Biowest, France) and […] gentamicin (Sigma, USA) at a seeding density of 5×10^4 cells/ml. The cells were then cultured in an incubator with a humidified atmosphere of 5% CO2 in air at 37° C. The experiment was carried out in accordance with the three schemes given below. The experiment was started 24 hours after the cells were seeded. For this purpose, the agents used in the method were introduced into the appropriate wells. The following schemes of introduction were used for the study:
Scheme 1) The ^85Rb-enriched rubidium salt of N-benzoyl-N′-(4-toluenesulfonyl)-o-phenylenediamine of formula I was introduced at the first stage in the following amounts: 2.0 μg/ml, 1.0 μg/ml, 0, 5 μg/ml, and one antitumor drug was introduced at the second stage (after 24 hours).
Scheme 2) An AD was introduced at the first stage at doses as indicated in Scheme 1 above and ^85Rb-enriched rubidium salt of N-benzoyl-N′-(4-toluenesulfonyl)-o-phenylenediamine of formula I was introduced at the second stage (after 24 hours) at the following doses: 2.0 μg/ml, 1.0 μg/ml, 0.5 μg/ml.
After all the agents were added into the wells, the cells were incubated at 37° C. and 5% CO2 for another 72 hours (96 hours in total after the cells were seeded).
As in example 2, the cytotoxic effect was determined as the percentage of the cell number with respect to the control after their treatment in accordance with the claimed method. The effects of the drugs were evaluated visually, which allowed us to examine the morphological pattern of the cytotoxic action of the drugs, and by staining the cells with crystal violet, followed by OD measurement at an excitation wavelength of 540 nm using a MultiSkan microplate spectrophotometer.
The effects of the complex action of various doses of the investigated substances were evaluated using the concept of synergistic, additive and antagonistic effects of the drugs, as for Example 2, and calculating CI as described in Example 2.
Each table sets forth the % of MM-4 cells that survived in the presence of the drug doses indicated in the in vitro experiments described above, expressed as a percentage of the cells in the control wells.

Structure (SMILES): CN(C)/N=N/c1[nH]cnc1C(N)=O [dacarbazine]
- % surviving MM-4 cells ([1]; dacarbazine 2.5 μg/ml alone): 21 ± 2.4%
- % surviving MM-4 cells ([1]; dacarbazine 5 μg/ml alone): 18.1 ± 0.2%
- % surviving MM-4 cells ([1]; dacarbazine 10 μg/ml alone): 11.6 ± 3%
- % surviving MM-4 cells ([1]; dacarbazine 20 μg/ml alone): 7.8 ± 0.5%
- % surviving MM-4 cells ([1]; dacarbazine 40 μg/ml alone): 3.5 ± 0.7%
- % surviving MM-4 cells ([2]; dacarbazine 2.5 μg/ml alone, first stage): 21 ± 2.4%
- % surviving MM-4 cells ([2]; dacarbazine 2.5 μg/ml alone, second stage): 40.7 ± 0.7%
- % surviving MM-4 cells ([2]; dacarbazine 5 μg/ml alone, first stage): 18.1 ± 0.2%
- % surviving MM-4 cells ([2]; dacarbazine 5 μg/ml alone, second stage): 30 ± 2.4%
- % surviving MM-4 cells ([2]; dacarbazine 10 μg/ml alone, first stage): 11.6 ± 3%
- % surviving MM-4 cells ([2]; dacarbazine 10 μg/ml alone, second stage): 19 ± 4%
- % surviving MM-4 cells ([2]; dacarbazine 20 μg/ml alone, first stage): 7.8 ± 0.5%
- % surviving MM-4 cells ([2]; dacarbazine 20 μg/ml alone, second stage): 12.9 ± 2.9%
- % surviving MM-4 cells ([2]; dacarbazine 40 μg/ml alone, first stage): 3.5 ± 0.7%
- % surviving MM-4 cells ([2]; dacarbazine 40 μg/ml alone, second stage): 8.4 ± 1.2%

Structure (SMILES): COc1cccc2c1C(=O)c1c(O)c3c(c(O)c1C2=O)C[C@@](O)(C(=O)CO)C[C@@H]3O[C@H]1C[C@H](N)[C@H](O)[C@H](C)O1 [doxorubicin]
- % surviving MM-4 cells ([1]; doxorubicin 150 ng/ml alone): 14.4 ± 1.1%
- % surviving MM-4 cells ([1]; doxorubicin 175 ng/ml alone): 13 ± 0.1%
- % surviving MM-4 cells ([1]; doxorubicin 200 ng/ml alone): 9.1 ± 1.1%
- % surviving MM-4 cells ([1]; doxorubicin 300 ng/ml alone): 3.1 ± 0.1%
- % surviving MM-4 cells ([1]; doxorubicin 500 ng/ml alone): 0%
- % surviving MM-4 cells ([2]; doxorubicin 150 ng/ml alone, first stage): 14.4 ± 1.1%
- % surviving MM-4 cells ([2]; doxorubicin 150 ng/ml alone, second stage): 35.5 ± 0.8%
- % surviving MM-4 cells ([2]; doxorubicin 175 ng/ml alone, first stage): 13 ± 0.1%
- % surviving MM-4 cells ([2]; doxorubicin 200 ng/ml alone, first stage): 9.1 ± 1.1%
- % surviving MM-4 cells ([2]; doxorubicin 200 ng/ml alone, second stage): 24.8 ± 5.5%
- % surviving MM-4 cells ([2]; doxorubicin 300 ng/ml alone, first stage): 3.1 ± 0.1%
- % surviving MM-4 cells ([2]; doxorubicin 300 ng/ml alone, second stage): 12.2 ± 0.5%
- % surviving MM-4 cells ([2]; doxorubicin 500 ng/ml alone, first stage): 0%
- % surviving MM-4 cells ([2]; doxorubicin 500 ng/ml alone, second stage): 5.3 ± 0.9%

Structure (SMILES): CC(=O)O[C@H]1C(=O)[C@@]2(C)[C@H]([C@H](OC(=O)c3ccccc3)[C@]3(O)C[C@H](OC(=O)[C@H](O)[C@@H](NC(=O)c4ccccc4)c4ccccc4)C(C)=C1C3(C)C)[C@]1(OC(C)=O)CO[C@@H]1C[C@@H]2O [paclitaxel]
- % surviving MM-4 cells ([1]; paclitaxel 3 ng/ml alone): 80 ± 2.3%
- % surviving MM-4 cells ([1]; paclitaxel 7.5 ng/ml alone): 33.4 ± 1.4%
- % surviving MM-4 cells ([1]; paclitaxel 30 ng/ml alone): 7 ± 0.8%
- % surviving MM-4 cells ([1]; paclitaxel 3 μg/ml alone): 1.9 ± 0.2%
- % surviving MM-4 cells ([2]; paclitaxel 3 ng/ml alone, first stage): 80 ± 2.3%
- % surviving MM-4 cells ([2]; paclitaxel 3 ng/ml alone, second stage): 87.7 ± 6.7%
- % surviving MM-4 cells ([2]; paclitaxel 7.5 ng/ml alone, first stage): 33.4 ± 1.4%
- % surviving MM-4 cells ([2]; paclitaxel 7.5 ng/ml alone, second stage): 49 ± 1%
- % surviving MM-4 cells ([2]; paclitaxel 15 ng/ml alone, second stage): 37 ± 4.5%
- % surviving MM-4 cells ([2]; paclitaxel 30 ng/ml alone, first stage): 7 ± 0.8%
- % surviving MM-4 cells ([2]; paclitaxel 30 ng/ml alone, second stage): 29.2 ± 4.4%
- % surviving MM-4 cells ([2]; paclitaxel 3 μg/ml alone, first stage): 1.9 ± 0.2%

Structure (SMILES): CCC1=C[C@@H]2CN(C1)Cc1c([nH]c3ccccc13)[C@@](C(=O)OC)(c1cc3c(cc1OC)N(C)[C@H]1[C@@](O)(C(=O)OC)[C@H](OC(C)=O)[C@]4(CC)C=CCN5CC[C@]31[C@@H]54)C2 [vinorelbine]
- % surviving MM-4 cells ([1]; vinorelbine 1 ng/ml alone): 10 ± 0.1%
- % surviving MM-4 cells ([1]; vinorelbine 5 ng/ml alone): 9.5 ± 0.5%
- % surviving MM-4 cells ([1]; vinorelbine 25 ng/ml alone): 2 ± 0.8%
- % surviving MM-4 cells ([1]; vinorelbine 50 ng/ml alone): 2 ± 1%
- % surviving MM-4 cells ([1]; vinorelbine 200 ng/ml alone): 1%
- % surviving MM-4 cells ([2]; vinorelbine 1 ng/ml alone, first stage): 10 ± 0.1%
- % surviving MM-4 cells ([2]; vinorelbine 1 ng/ml alone, second stage): 26 ± 2.5%
- % surviving MM-4 cells ([2]; vinorelbine 5 ng/ml alone, first stage): 9.5 ± 0.5%
- % surviving MM-4 cells ([2]; vinorelbine 5 ng/ml alone, second stage): 17.9 ± 0.9%
- % surviving MM-4 cells ([2]; vinorelbine 25 ng/ml alone, first stage): 2 ± 0.8%
- % surviving MM-4 cells ([2]; vinorelbine 25 ng/ml alone, second stage): 7.9 ± 0.5%
- % surviving MM-4 cells ([2]; vinorelbine 50 ng/ml alone, first stage): 2 ± 1%
- % surviving MM-4 cells ([2]; vinorelbine 50 ng/ml alone, second stage): 6.4 ± 0.4%
- % surviving MM-4 cells ([2]; vinorelbine 200 ng/ml alone, first stage): 1%
- % surviving MM-4 cells ([2]; vinorelbine 200 ng/ml alone, second stage): 5.6 ± 0.6%

Reference: patent US11286236B2, “Compound, agent and composition for the suppression of cancer growth” (Vector Vitale IP LLC, priority 2018, dated 2022)
